Assay results as given in patent US7910750B2, “Artemisinin (qinghaosu) derivatives, their preparation methods and their use, and pharmaceutical compositions containing the same” (Shanghai Institute of Materia Medica, Chinese Academy of …, priority 2005, dated 2011).

What was measured:
[1] = tested on: BALB/c mouse spleen cells; assay: Lymphocytotoxicity test (MTT); format: cell-based; settings: mouse spleen cells, 48 hours, read-out: Lymphocytotoxicity CC50
Procedure: A. Lymphocytotoxicity Test
1. BALB/c mice were killed by cervical dislocation, and their spleens were removed aseptically. A single spleen cell suspension was prepared and cell debris and clumps were removed.
2. 80 μL cell suspension, 40 μL testing sample, 40 μL medium containing 10% FBS were added into 96 well plate; for the control group, 80 μL medium was added the total volume was 160 μL, and blank control group was set.
3. After incubated in 5% CO2 incubator at 37° C. for 48 hours, 16 μL MTT (5 mg/mL) reagent was added into each well 6-7 hours before the termination of the incubation.

T lymphocyte = assay: Lymphocyte proliferation test, T lymphocyte proliferation response induced by ConA ([3H]-thymidine); format: cell-based, mouse; settings: mouse spleen cells, ConA, 48 hours; read-out: Inhibiting activity of T lymphocyte proliferation response induced by ConA IC50
Procedure: B. Lymphocyte Proliferation Test […] […] 3. After incubated in 5% CO2 incubator at 37° C. for 48 hours, 0.5 μCi [^3H]-thymidine (25 μL/well) was added into each well 7-8 hours before the termination of the incubation. 4.

B lymphocyte = assay: Lymphocyte proliferation test, B lymphocyte proliferation response induced by LPS ([3H]-thymidine); format: cell-based, mouse; settings: mouse spleen cells, LPS, 48 hours; read-out: Inhibiting activity of B lymphocyte proliferation response induced by LPS IC50
Procedure: 3. After incubated in 5% CO2 incubator at 37° C. for 48 hours, 0.5 μCi [^3H]-thymidine (25 μL/well) was added into each well 7-8 hours before the termination of the incubation. 4.

CC(C(=O)O)c1ccc(OC2OC3OC4(C)CCC5C(C)CCC(C2C)C35OO4)cc1 (stereo not drawn) [compound 22, 2-[4-(12β-artemisininoxy)phenyl] propanoic acid]
CC50 [1]: 59.6 µM
IC50 (T lymphocyte): 3.6 µM
IC50 (B lymphocyte): 8.6 µM

COc1ccccc1OC(=O)C(C)c1ccc(OC2OC3OC4(C)CCC5C(C)CCC(C2C)C35OO4)cc1 (stereo not drawn) [compound 23, o-methoxy-phenyl 2-[4-(12β-artemisininoxy)phenyl] propionate]
CC50 [1]: 5.33 µM
IC50 (T lymphocyte): 0.527 µM
IC50 (B lymphocyte): 0.0947 µM

CCOC(=O)C(C)Oc1ccc(OC2OC3OC4(C)CCC5C(C)CCC(C2C)C35OO4)cc1 (stereo not drawn) [compound 24, ethyl 2-[4-(12β-artemisininoxy)phenoxy] propionate]
CC50 [1]: 17.6 µM
IC50 (T lymphocyte): 0.26 µM
IC50 (B lymphocyte): 0.85 µM

CC(Oc1ccc(OC2OC3OC4(C)CCC5C(C)CCC(C2C)C35OO4)cc1)C(=O)O (stereo not drawn) [compound 25, 2-[4-(12β-artemisininoxy)phenoxy] propanoic acid]
CC50 [1]: 24.3 µM
IC50 (T lymphocyte): 7.27 µM
IC50 (B lymphocyte): 0.86 µM

COc1ccccc1OC(=O)C(C)Oc1ccc(OC2OC3OC4(C)CCC5C(C)CCC(C2C)C35OO4)cc1 (stereo not drawn) [compound 26, o-methoxy-phenyl 2-[4-(12β-artemisininoxy)phenoxy] propionate]
CC50 [1]: 39.1 µM
IC50 (T lymphocyte): 2.33 µM
IC50 (B lymphocyte): 0.27 µM

COc1ccccc1OC(=O)C(C)Oc1cccc(OC2OC3OC4(C)CCC5C(C)CCC(C2C)C35OO4)c1 (stereo not drawn) [compound 27, o-methoxy-phenyl 2-[3-(12β-Artemisininoxy)phenoxy] propionate]
CC50 [1]: 2.99 µM
IC50 (T lymphocyte): 4.12 µM
IC50 (B lymphocyte): 0.57 µM

CCOC(=O)C(C)Oc1cccc(OC2OC3OC4(C)CCC5C(C)CCC(C2C)C35OO4)c1 (stereo not drawn) [compound 28, ethyl 2-[3-(12α-artemisininoxy)phenoxy] propionate]
CC50 [1]: 2.99 µM
IC50 (T lymphocyte): 3.59 µM
IC50 (B lymphocyte): 0.56 µM

CC(Oc1cccc(OC2OC3OC4(C)CCC5C(C)CCC(C2C)C35OO4)c1)C(=O)O (stereo not drawn) [compound 29, 2-[3-(12α-artemisininoxy)phenoxy] propanoic acid]
CC50 [1]: 35.1 µM
IC50 (T lymphocyte): 8.6 µM
IC50 (B lymphocyte): 0.74 µM

COc1ccccc1OC(=O)C(C)Oc1cccc(OC2OC3OC4(C)CCC5C(C)CCC(C2C)C35OO4)c1 (stereo not drawn) [compound 30, o-methoxy-phenyl 2-[3-(12α-artemisininoxy)phenoxy] propionate]
CC50 [1]: 8.23 µM
IC50 (T lymphocyte): 5.73 µM
IC50 (B lymphocyte): 0.82 µM
